Laboratory results taken from paper PMC11359809, “Probing the molecular basis for signal transduction through the Zinc-Activated Channel (ZAC)” (Biochemical pharmacology, 2021).
Numbering of substitutions follows the chain as printed.

Experiments:
WT ZAC = molecular target: T1, WT ZAC (Homo sapiens, UniProt Q401N2, A152T); experiment: TEVC in Xenopus oocytes expressing WT ZAC; type: cell-based; conditions: TC 100 μM
T1 construct: expressed in transfected cells; host or cells: Xenopus oocytes injected with cRNA (pUNIV vector)
T1 sequence (Q401N2 26-412 A152T): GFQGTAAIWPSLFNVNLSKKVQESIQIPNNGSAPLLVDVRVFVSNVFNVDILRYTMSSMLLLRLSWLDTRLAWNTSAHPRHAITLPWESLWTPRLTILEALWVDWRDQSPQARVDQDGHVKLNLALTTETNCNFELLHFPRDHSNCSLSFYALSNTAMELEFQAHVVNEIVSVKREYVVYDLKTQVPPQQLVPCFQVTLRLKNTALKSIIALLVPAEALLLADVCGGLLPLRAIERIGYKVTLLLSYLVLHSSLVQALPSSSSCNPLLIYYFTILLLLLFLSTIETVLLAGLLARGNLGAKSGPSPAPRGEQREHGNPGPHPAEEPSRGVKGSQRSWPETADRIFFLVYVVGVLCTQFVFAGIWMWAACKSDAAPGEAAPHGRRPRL
Description: (§1) The recordings were performed at room temperature.
(§2) Analysis of the data from the TEVC recordings were performed using Clampfit software version 10.5 (Molecular Devices, Crawley, UK) and GraphPad Prism version 7.0c (GraphPad Software, La Jolla, CA). Unless otherwise stated, the inward currents induced by agonists in oocytes were normalized to the maximal response elicited by a specific agonist (agonist Imax) on each oocyte. Concentration-response and concentration-inhibition curves were fitted in GraphPad Prism by nonlinear regression using the equation for sigmoidal dose-response with variable slope. Each data point represents the mean ± S.E.M. value of recordings performed on at least five oocytes in total from at least two different batches. For the data where statistical analysis was performed, a one-way ANOVA was used. The null hypothesis was rejected at P < 0.05, and the differences between the means were analyzed by Tukey’s multiple comparisons test.

ZAC^L9′A = molecular target: T2, ZAC^L9′A (Homo sapiens, UniProt Q401N2, A152T/L270A); experiment: TEVC in oocytes, ZAC L9′A mutant; type: cell-based; conditions: TC 100 μM
T2 construct: expressed in transfected cells; host or cells: Xenopus oocytes injected with cRNA (pUNIV vector)
T2 sequence (Q401N2 26-412 A152T/L270A): T1 sequence (Q401N2 26-412 A152T) with L245A
Description: as §1, §2

ZAC^L9′V = molecular target: T3, ZAC^L9′V (Homo sapiens, UniProt Q401N2, A152T/L270V); experiment: TEVC in oocytes, ZAC L9′V mutant; type: cell-based; conditions: TC 100 μM; outward currents compared to WT ZAC and ZAC^L9′A
T3 construct: expressed in transfected cells; host or cells: Xenopus oocytes (cRNA injection, pUNIV vector)
T3 sequence (Q401N2 26-412 A152T/L270V): T1 sequence (Q401N2 26-412 A152T) with L245V
Description: as §1, §2

ZAC^L9′I = molecular target: T4, ZAC^L9′I (Homo sapiens, UniProt Q401N2, A152T/L270I); experiment: TEVC in oocytes, ZAC L9′I mutant; type: cell-based; conditions: TC 100 μM; outward currents compared to WT ZAC and ZAC^L9′A
T4 construct: expressed in transfected cells; host or cells: Xenopus oocytes (cRNA injection, pUNIV vector)
T4 sequence (Q401N2 26-412 A152T/L270I): T1 sequence (Q401N2 26-412 A152T) with L245I
Description: as §1, §2

ZAC^L9′T = molecular target: T5, ZAC^L9′T (Homo sapiens, UniProt Q401N2, A152T/L270T); experiment: TEVC in oocytes, ZAC L9′T mutant; type: cell-based; conditions: TC 100 μM; outward currents compared to WT ZAC and ZAC^L9′A
T5 construct: expressed in transfected cells; host or cells: Xenopus oocytes (cRNA injection, pUNIV vector)
T5 sequence (Q401N2 26-412 A152T/L270T): T1 sequence (Q401N2 26-412 A152T) with L245T
Description: as §1, §2

[1] = tested on: ZAC^L9′X mutants (L9′A, L9′V, L9′I, L9′T); experiment: TEVC in oocytes, all four L9′X mutants (collective statement); type: cell-based, human; conditions: TC 100 μM; 1 mM Zn^2+; range over all four mutants
Description: as §1, §2
Fig. 8. Functional importance of the Leu9′ residue in ZAC. […] B. Resting membrane potentials (left) and leak currents (right) recorded from oocytes expressing WT ZAC, ZAC^L9′A, ZAC^L9′T, ZAC^L9′V and ZAC^L9′I. Data are given as mean ± S.E.M. values (n = 40–60). C. […]

In the case of COc1cc2c3cc1Oc1cc(ccc1O)C[C@@H]1c4c(cc(OC)c(O)c4Oc4ccc(cc4)C[C@@H]3N(C)CC2)CC[N+]1(C)C [TC, tubocurarine], the “I100 μM TC (antagonist-evoked current, spontaneous activity)” value (WT ZAC) is reported as “small but significant outward currents”, the “I100 μM TC (antagonist-evoked current, spontaneous activity)” value (ZAC^L9′A) is reported as “small but significant outward currents” and the “I100 μM TC (antagonist-evoked current, spontaneous activity)” value (ZAC^L9′V) is reported as “substantially higher amplitudes”. For the same compound, the “I100 μM TC (antagonist-evoked current, spontaneous activity)” value (ZAC^L9′I) was “substantially higher amplitudes”, the “I100 μM TC (antagonist-evoked current, spontaneous activity)” value (ZAC^L9′T) was “substantially higher amplitudes” and the “I100 μM TC/(IZn2+ max + I100 μM TC) ratio (degree of spontaneous activity)” value [1] was 34–40%.
